In ChEMBL document CHEMBL1143406 (Antimicrob Agents Chemother, 2007):

Key:
Assay type in all cases: ADME, organism-based
[1] = Apparent oral clearance in HIV-negative human at 600 mg, po administered every 24 hrs coadministered with 300 mg of atazanavir every 12 hrs; conditions: in vivo
[2] = system: Homo sapiens; assay: Terminal apparent distribution volume in HIV-negative human at 600 mg, po administered every 24 hrs coadministered with 400 mg of atazanavir every 12 hrs; conditions: in vivo
[3] = Cmax in HIV-negative human at 600 mg, po administered every 24 hrs coadministered with 300 mg of atazanavir every 12 hrs; parameters: dose 600 mg, route oral; conditions: in vivo
[4] = AUC (24 hrs) in HIV-negative human at 600 mg, po administered every 24 hrs coadministered with 400 mg of atazanavir every 12 hrs; parameters: time < 24 hr, dose 600 mg, route oral; conditions: plasma
[5] = Tmax in HIV-negative human at 600 mg, po administered every 24 hrs coadministered with 400 mg of atazanavir every 12 hrs; conditions: in vivo
[6] = Apparent oral clearance in HIV-negative human at 600 mg, po administered every 24 hrs coadministered with 400 mg of atazanavir every 12 hrs; conditions: in vivo
[7] = AUC (24 hrs) in HIV-negative human at 600 mg, po administered every 24 hrs coadministered with 300 mg of atazanavir every 12 hrs; parameters: dose 600 mg, time < 24 hr, route oral; conditions: plasma
[8] = Cmax in HIV-negative human at 600 mg, po administered every 24 hrs coadministered with 400 mg of atazanavir every 12 hrs; parameters: dose 600 mg, route oral; conditions: in vivo
[9] = system: Homo sapiens; assay: Terminal apparent distribution volume in HIV-negative human at 600 mg, po administered every 24 hrs coadministered with 300 mg of atazanavir every 12 hrs; conditions: in vivo
[10] = Tmax in HIV-negative human at 600 mg, po administered every 24 hrs coadministered with 300 mg of atazanavir every 12 hrs; conditions: in vivo
[11] = Half life in HIV-negative human at 600 mg, po administered every 24 hrs coadministered with 300 mg of atazanavir every 12 hrs; conditions: in vivo
[12] = Half life in HIV-negative human at 600 mg, po administered every 24 hrs coadministered with 400 mg of atazanavir every 12 hrs; conditions: in vivo

Row | Compound | CL/F [1] | Vbeta [2] | Cmax [3] | AUC at 24 h [4] | Tmax [5] | CL/F [6] | AUC at 24 h [7] | Cmax [8] | Vbeta [9] | Tmax [10] | half-life [11] | half-life [12]
1 | CO[C@H]1/C=C/O[C@@]2(C)Oc3c(C)c(O)c4c(O)c(c(/C=N/N5CCN(C)CC5)c(O)c4c3C2=O)NC(=O)/C(C)=C\C=C\[C@H](C)[C@H](O)[C@@H](C)[C@@H](O)[C@@H](C)[C@H](OC(C)=O)[C@@H]1C [RIFAMPIN] | 252 mL/min | 33 L | 9490 ng/mL | 41700 ng·h/mL | 2.7 h | 275 mL/min | 45700 ng·h/mL | 10100 ng/mL | 32 L | 2.7 h | – | –
2 | CO[C@H]1/C=C/O[C@@]2(C)Oc3c(C)c(O)c4c(O)c(c(/C=N/N5CCN(C)CC5)c(O)c4c3C2=O)NC(=O)/C(C)=C\C=C\[C@H](C)[C@H](O)[C@@H](C)[C@@H](O)[C@@H](C)[C@H](O)[C@@H]1C | 1490 mL/min | 159 L | 1650 ng/mL | 9400 ng·h/mL | 3.7 h | 1260 mL/min | 8300 ng·h/mL | 1710 ng/mL | 200 L | 3.2 h | 1.6 h | 1.5 h
